Experiments:
[1] = system: 6-OHDA-induced PD rats; assay: Immunofluorescence tissue analysis of regeneration of the dopaminergic nigrostriatal pathway; type: in vivo
Method: To obtain the brain sections, rats were anesthetized by sodium pentobarbitone (60 mg/kg i.p., Apoteksbolaget, Sweden) and trans-cardially perfused with saline (50 ml, 0.9% w/v) followed by ice-cold paraformaldehyde (200 ml, 10% w/v in 0.02 M PBS) were performed at 18- and 12-week in the acute and chronic PD rats, respectively. Brain sections were subjected for immunocytochemistry, immunohistochemistry, and immunofluorescence tissue analysis as indicated.
To further verify the regeneration of the dopaminergic nigrostriatal pathway after cell therapy, immunofluorescence tissue analysis was performed (TissueGnostics Gmbh, Vienna, Austria). Brain sections were investigated, including 14 acute PD rats (i.e., 2 at 1-week and 2 at 6-week post-injury and 2 controls, 6 at 12-weeks after cell transplantation and 2 controls) and 4 chronic PD rats (i.e., 2 at 12-week after cell therapy and 2 controls). In the SNC, 6-OHDA caused progressive neural degeneration, resulting in various sizes of cavity at 6 weeks post-injury (FIG. 31).

[2] = system: Huh-7 cells; assay: BBP-induced signaling in Huh-7 cells (RT-PCR, Western blot, immunofluorescence); type: cell-based, human; details: PD98059 20 μM, 1 h pretreatment
Method: Huh-7 cells (3×10^5) were seeded into a 6-well dish and incubated for 24 h. Cells cultured serum-free medium overnight were treated with BBP (1 μM) for various time intervals. After BBP stimulation, cells were washed twice with PBS. Total RNAs were extracted by TRIzol methods (Invitrogen). RNA (2 μg) was used to synthesize cDNA by Reverse Transcription System (Promega). The c-DNAs were amplified by the specific primers. The primer pairs were designed as follows: AhR, forward 5′-TACTCTGCCGCCCAAACTGG-3′ (SEQ ID NO:49), reverse 5′-GCTCTGCAACCTCCGATTCC-3′ (SEQ ID NO:50); β-actin, forward 5′-CTC GCT GTC CAC CTT CCA-3′ (SEQ ID NO:51), reverse 5′-GCT GTC ACC TTC ACC GTTC-3′ (SEQ ID NO:52). PCR conditions were set at 95° C. for 5 min and 95° C. for 30 sec, 54° C. for 30 sec, 72° C. for 1 min followed by 72° C. for 10 min (36 cycles). The products were separated by 2% agarose gels and visualized by ethidium bromide.
Huh-7 cells (1×10^6) were seeded into 10 cm dish and cultured overnight. The culture medium was changed to serum-free medium for another night. Cells were treated with BBP (1 μM) for various time intervals. […] Cells were then washed twice with ice-cold PBS and lysed by RIPA lysis buffer (Minipore). Protein concentration was measured by BCA protein assay kit (Thermo). Equal amounts of protein (30 μg protein) were resolved by 8% SDS-PAGE, transferred onto PVDF membrane, and blocked with 5% non-fat dry milk for 1 h at room temperature. After blocking, the membrane was incubated with the primary antibodies including AhR (1:1000), Cox-2 (1:1000), Gαq/11 (1:100), Gβ (1:100), β-actin (1:5000), p44/42 MAP kinase (1:1000) or phospho-p44/42 MAP kinase (1:1000) overnight at 4° C. Cells were washed three times with PBST and then incubated with HRP conjugated secondary antibodies for 1 h at room temperature. After washing, the blot was visualized using an enhanced chemiluminescence kit (ECL) (Amersham).
Cells with or without transfection by AhR siRNA were cultured and treated with BBP (1 μM) for 5 and 15 min each. After treatment with primary and secondary antibodies for AhR and Gαq/11, cells were subjected to confocal immunofluorescence microscopy to analyze the dynamic movement in the cell compartments.

[3] = system: hTS cells; assay: LIF dose effect on pluripotency transcription factors in hTS cells (RT-PCR, qPCR, flow cytometry); type: cell-based, human
Method: The differential gene expressions of Oct4, Sox2, NANOG, fgfr2, FGF4, BMP4, Cdx2, and endogenous control β-actin (ACTB) were measured in the hTS and the hTS cells treated by 500 units LIF (Chemicon, Temecula, CA) by IQ5 Real-time PCR detection system (Bio-Rad Laboratories) that using fluorescein as an internal passive reference dye for normalization of well-to-well optical variation. PCR amplifications were carried out in a total volume of 25 μl, containing 12.5 μl of 2×SYBR Green supermix (Bio-Rad), 0.5 μl of 10 μM of each primer and 0.5 μl of cDNA samples and mixed with sterile water. The reaction was initiated at 95° C., 3 minutes, followed by 60 three-step amplification cycles consisting of 30 s denaturation at 95° C., 30 s annealing at 60° C., 15 s extension at 72° C. At final dissociation stage, it was run to generate a melting curve for verification of amplification product specificity. Real-time qPCR was monitored and analyzed by the Bio-Rad IQ5 optical system software version 2.0 (Bio-Rad). Relative mRNA levels were calculated using the comparative Ct method (Bio-Rad instruction manual) and presented with ratio to biological controls. ACTB transcript levels were confirmed to correlate well with total RNA amounts and therefore used for normalization throughout. All primer pairs used were confirmed to approximately double the amount of product within one cycle and to yield a single product of the predicted size. Primer sequences of Oct4, Sox2, NANOG, fgfr2, FGF4, BMP4, Cdx2, and endogenous control β-actin (ACTB) are shown in Supplemental Data Table 3.
Cells (5×10^6 cells/ml) were incubated with a variety of primary antibodies for 30 min and then incubated with the appropriate fluorescein isothiocyanate (FITC)-, phycoerythrin (PE)- or Rho-conjugated secondary antibody (Jackson ImmunoResearch, West Grove, PA) at adjusted dilution for 1 h at 4° C. After thorough washing, cells were re-suspended in PBS (1 ml) and subjected to flow cytometry (FACScan, BD Biosciences, San Jose, CA). The data were analyzed with Cell-Quest software (BD Biosciences).
The effects of LIF withdrawal on human trophoblast stem (hTS) cells were examined since hTS cells expresses pluripotent gene markers of both embryonic stem (ES) cells and trophoblastic stem (TS) cells such as Oct4, Nanog, Sox2, and Cdx2 (FIG. 1a). hTS cells were treated with different dosages of LIF, i.e., 500 (mimic at ampulla), 250 (mimic at mid-portion), and 125 units (mimic at isthmus) for 3 days each, showing that LIF promoted Oct4 expression but represses Cdx2, Nanog, and Sox2 expressions in a dose-dependent manner (FIG. 1b). Quantitative PCR analyses supported these findings (FIG. 1c). As the relative expression ratio of Oct4 to Cdx2 enables to determine cell fate in early embryonic differentiation (Niwa et al., 2000), the Oct4/Cdx2 ratio ([…]) appeared to be the highest at the ampulla which decreased to 0.2-fold at mid-portion and became near one at isthmic portion (FIG. 1d). This decreasing trend of Oct4/Cdx2 ratio actually facilitates the differentiation towards trophectoderm fate (Niwa et al., 2005). […] This role of rescuer was further supported by the prominently high Nanog/Oct4 ratio of LIF with 125 units compared to the ratio of LIF with 500 units and the apparent increase of Cdx2/Oct4 ratio at LIF with 125 units (FIG. 1e) No apparent change of Sox2/Cdx2 was found.

NCCc1cc(O)c(O)cc1O [6-OHDA, 6-hydroxydopamine]
DA (TH+) neurons in SNC compared to intact side ([1]; 1-week post-injury): 48% | DA (TH+) neurons in striatum compared to intact side ([1]; 1-week post-injury): 78% | DA (TH+) neurons in SNC compared to intact side ([1]; 6-week post-injury): 13% | DA (TH+) neurons in striatum compared to intact side ([1]; 6-week post-injury): 4% | GFAP(+) cells in lesioned striatum compared to intact side ([1]; 6 weeks post-injury): 65.5%

COc1cccc(-c2cc(=O)c3ccccc3o2)c1N [PD98059]
BBP-induced ERK phosphorylation and COX-2 activation [2]: blocked

leukemia inhibitory factor [LIF]
Oct4/Cdx2 ratio ([3]; LIF 125 units (mimic at isthmus), 3 days): one | Nanog/Cdx2 ratio ([3]; LIF 125 units, 3 days): 2 fold | Oct4/Cdx2 ratio ([3]; LIF 250 units (mimic at mid-portion), 3 days): 0.2 fold | Oct4 expression ([3]; LIF 500, 250, 125 units, 3 days): promoted | Cdx2, Nanog, and Sox2 expressions ([3]; LIF 500, 250, 125 units, 3 days, dose-dependent): represses | Oct4/Cdx2 ratio ([3]; LIF 500 units (mimic at ampulla), 3 days): 0.4 fold | Nanog/Cdx2 ratio ([3]; LIF 500 units, 3 days): 0.1 fold | Nanog expression ([3]; LIF-induced cells, isthmus level (125 U/ml), flow cytometry): 62.5% | RA-induced Nanog expression ([3]; hTS cells preincubated with RA (10 μM) overnight, then LIF 125, 250, 500 U/ml 1 day, flow cytometry): suppresses

From patent US11891623B2, “Generation of neural stem cells from human trophoblast stem cells” (Accelerated BioSciences Corp., priority 2010, dated 2024)
